Data reported in patent US8034940B2, “Modulators of glucocorticoid receptor, AP-1, and/or NF-κB activity and use thereof” (Bristol-Myers Squibb Company, priority 2006, dated 2011).

Test system: AP-1 induced transcriptional activity
Experiment: Cellular Transrepressional Assay (AP-1 luciferase reporter, PMA-activated A549 cells)
Format: cell-based
Conditions: for Emax: A549, 7 h, read-out: AP-1 Max % inh (Cellular Transrepression Assay); for Emax / AP-1 Max % inh (Cellular Transrepression Assay): maximum inhibition
Method in brief: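 Compounds tested from 0.1 nM to 40 μM during a 7 h PMA (10 ng/ml) stimulation of A549 cells stably transfected with 7× AP-1 sites driving luciferase. Repression expressed as % reduction of PMA-induced luminescence; EC50 by curve fitting.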

[1] = Homo sapiens, Cellular Transrepression Assay
[2] = Homo sapiens, A549, Cellular Transrepression Assay

Structure (SMILES) | Emax [1] [%] | EC50 [2] [nM] | EC50 (Cellular Transrepression Assay) [nM] | AP-1 Max % inh (Cellular Transrepression Assay) (Cellular Transrepression Assay) [%]
CCc1cnc(-c2ccc3c(c2)Oc2ccccc2[C@@H]3C(C)(C)C(=O)Nc2nncs2)nc1 [Example 111] | 40.7 | 14.6 |  | 
CN(C)C(=O)c1ccc(-c2ccc3c(n2)Oc2ccccc2[C@@H]3C(C)(C)C(=O)Nc2nncs2)cc1Cl [Example 260] | 67.3 | 23.1 |  | 
COc1ccc(Cc2csc(NC(=O)C(C)(C)C3c4ccccc4Oc4ccccc43)n2)cc1 [Example 33] | 55.2 | 31.8 |  | 
Cc1nnc(NC(=O)C(C)(C)[C@H]2c3ccccc3Oc3nc(-c4ccc(C(=O)N(C)C)c(F)c4)ccc32)s1 [Example 474] | 37.9 | 85.4 |  | 
Cc1nnc(NC(=O)C(C)(C)C2c3ccc(-c4ccc(C(=O)N5CCOCC5)cc4)nc3Oc3c(F)cccc32)s1 (stereo not drawn) [Example 163] | 64.4 | 4.9 |  | 
CC(C)(C(=O)Nc1nncs1)C1c2ccccc2Oc2nc(-c3ccc(CC(=O)O)cc3)ccc21 (stereo not drawn) [Example 231] |  |  | 733 | 38.36
CCCC/C=C/c1ccc2c(n1)Oc1ccccc1[C@@H]2C(C)(C)C(=O)Nc1nncs1 [Example 436] | 44 | 95.7 |  | 
CC(C)(C(=O)Nc1nccs1)[C@H]1c2ccccc2Oc2cc(O)ccc21 [Example 89] | 68.3 | 18.1 |  | 
COc1ccc2c(c1)Oc1ccccc1[C@@H]2C(C)(C)C(=O)Nc1nc(Cc2ccc(-c3ccncc3)cc2)cs1 [Example 58] | 70 | 3.71 |  | 
CC(C)(C(=O)Nc1nnc(CF)s1)[C@H]1c2ccccc2Oc2nc(-c3ccc(C(=O)N4CCOCC4)cc3)ccc21 [Example 430] | 47.2 | 34.7 |  | 
CC(C)(C(=O)Nc1nc(-c2ccc(F)c3ccccc23)cs1)C1c2ccccc2-c2ccccc21 [Example 21] | 60.8 |  |  | 
CCc1cnc(-c2ccc3c(c2)Oc2ccccc2C3C(C)(C)C(=O)Nc2nncs2)nc1 (stereo not drawn) [Example 106] | 48.4 | 24.1 |  | 
Cc1cnc(NC(=O)C(C)(C)C2c3ccccc3Oc3nc(-c4ccc(C(=O)N(C)C)cc4)ccc32)s1 (stereo not drawn) [Example 364] |  |  | 244 | 58.90
CCCCc1ccc(-c2ccc3c(n2)Oc2ccccc2C3C(C)(C)C(=O)Nc2nncs2)cc1 (stereo not drawn) [Example 212] |  |  | 19.6 | 63.05
CC(C)(C(=O)Nc1nncs1)C1c2ccccc2Oc2nc(-c3ccc(OCc4ccccc4)cc3)ccc21 (stereo not drawn) [Example 202] |  |  | 219 | 38.37
CC(C)(C(=O)Nc1nccs1)C1c2ccccc2Oc2nc(N3CCOCC3)ccc21 (stereo not drawn) [Example 154] | 46.2 | 236 |  | 
COc1ccc2c(c1)Oc1ccccc1C2C(C)(C)C(=O)Nc1nc(Cc2ccc(-c3ccncc3)cc2)cs1 (stereo not drawn) [Example 51] | 77.9 | 6.87 |  | 
CC(C)(C(=O)Nc1nc(-c2ccc(F)c3ccccc23)cs1)C1c2ccccc2Cc2ccccc21 [Example 17] | 68 | 335 |  | 
COc1ccc2c(c1)Oc1ccccc1C2C(C)(C)C(=O)Nc1nc(Cc2ccc(Br)cc2)cs1 (stereo not drawn) [Example 50] | 74.8 | 165 |  | 
COc1ccc(NC(=O)Oc2ccc3c(c2)Oc2ccccc2C3C(C)(C)C(=O)Nc2nncs2)cc1 (stereo not drawn) [Example 390] |  |  | 42.8 | 56.63
CC(=O)c1ccc(-c2ccc3c(n2)Oc2ccccc2C3C(C)(C)C(=O)Nc2nncs2)cc1 (stereo not drawn) [Example 201] |  |  | 36.3 | 65.46
CC(C)(C(=O)Nc1nncs1)[C@H]1c2ccccc2Oc2nc(-c3ccc(C(=O)N4CCOCC4)s3)ccc21 [Example 463] | 26.2 | 45.3 |  | 

Structure (SMILES) | Emax [1] [%] | EC50 [2] [nM] | EC50 (Cellular Transrepression Assay) [nM] | AP-1 Max % inh (Cellular Transrepression Assay) (Cellular Transrepression Assay) [%]
COc1ccc2c(c1)Oc1ccccc1[C@H]2C(C)(C)C(=O)Nc1nc(Cc2ccc(-c3cccnc3)cc2)cs1 [Example 55] | 75.5 | 21.5 |  | 
COC[C@H]1CCCN1C(=O)c1ccc(-c2ccc3c(n2)Oc2ccccc2[C@@H]3C(C)(C)C(=O)Nc2nncs2)cc1Cl [Example 330] | 60.6 | 21.9 |  | 
CC(C)(C(=O)Nc1nc(Cc2ccc(-c3ccncc3)cc2)cs1)C1c2ccccc2Oc2ccccc21 [Example 34] | 71.8 | 3.52 |  | 
CCCOc1ccc(-c2ccc3c(n2)Oc2ccccc2C3C(C)(C)C(=O)Nc2nncs2)cc1 (stereo not drawn) [Example 217] |  |  | 41 | 45.81
CC(C)(C(=O)Nc1nc(-c2ccc(F)c3ccccc23)cs1)C1c2ccccc2Oc2nc(Cl)ccc21 (stereo not drawn) [Example 73] | 60.6 | 735 |  | 
Cc1ccc(COC(=O)Nc2ccc3c(c2)Oc2ccccc2C3C(C)(C)C(=O)Nc2nncs2)cc1 (stereo not drawn) [Example 121] | 44.8 | 59.5 |  | 
CCOC(=O)c1nnc(NC(=O)C(C)(C)[C@H]2c3ccccc3Oc3nc(-c4ccc(C(=O)N5CCCC5)c(F)c4)ccc32)s1 [Example 417] | 54.1 | 67.3 |  | 
CC(=O)N1CCN(C(=O)c2ccc(-c3ccc4c(n3)Oc3ccccc3[C@@H]4C(C)(C)C(=O)Nc3nncs3)cc2)CC1 [Example 274] | 62.2 | 234 |  | 
CC(C)(C(=O)Nc1nncs1)[C@H]1c2ccccc2Oc2nc(-c3ccc(C(=O)N4CCC(F)(F)C4)c(F)c3)ccc21 [Example 335] | 56 | 37.9 |  | 
COc1ccc2c(c1)Oc1ccccc1[C@@H]2C(C)(C)C(=O)Nc1nc(Cc2ccc(-c3cccnc3)cc2)cs1 [Example 59] | 58.4 | 11.8 |  | 
COC1CCN(C(=O)c2ccc(-c3ccc4c(n3)Oc3ccccc3[C@@H]4C(C)(C)C(=O)Nc3nncs3)cc2)CC1 [Example 309] |  |  | 41.5 | 34.95
CCCN(C)C(=O)c1ccc(-c2ccc3c(n2)Oc2ccccc2C3C(C)(C)C(=O)Nc2nncs2)cc1 (stereo not drawn) [Example 254] |  |  | 23.6 | 41.80
CC(C)(C(=O)Nc1nc(-c2cccc3ccccc23)cs1)C1c2ccccc2S(=O)(=O)c2ccccc21 [Example 12] | 67.9 | 461 |  | 
CC(C)(C(=O)Nc1nc(C(=O)c2ccccc2)cs1)C1c2ccccc2Oc2ccccc21 [Example 44] | 69.3 |  |  | 
COc1ccc(-c2ccc3c(n2)Oc2ccccc2C3C(C)(C)C(=O)Nc2nncs2)cc1 (stereo not drawn) [Example 169] |  |  | 92.7 | 48.82
CC(C)(C(=O)Nc1nc(Cc2ccc(-c3ccncc3)cc2)cs1)C1c2ccccc2Sc2ccccc21 [Example 5] | 66 | 58.2 |  | 
CC(C)(C(=O)Nc1nc(-c2ccc(F)c3ccccc23)cs1)C1c2ccccc2Sc2ccccc21 [Example 8] | 69 | 546 |  | 
CCN(C)C(=O)c1ccc(-c2ccc3c(n2)Oc2ccccc2[C@@H]3C(C)(C)C(=O)Nc2nncs2)cc1F [Example 336] |  |  | 20.4 | 55.80
CC(C)(C(=O)Nc1nncs1)C1c2ccccc2Oc2nc(N3CCCCC3)ccc21 (stereo not drawn) [Example 132] | 50.1 | 96 |  | 
Cc1nnc(NC(=O)C(C)(C)[C@H]2c3ccccc3Oc3nc(-c4ccc(OC(C)C)cc4)ccc32)s1 [Example 461] | 50.8 | 53.4 |  | 
CC(C)(C(=O)Nc1nncs1)[C@H]1c2ccccc2Oc2cc(OC(=O)NCc3ccco3)ccc21 [Example 372] | 52.4 | 28.3 |  | 
